Results published in ChEMBL document CHEMBL5634078, “Catechol-mimicking transition-state analogues as non-oxidizable inhibitors of tyrosinases” (Eur J Med Chem, 2023).
pIC50, pKi: −log10 of the molar value.

Key:
[1] = Binding affinity to Mushroom Tyrosinase assessed as inhibition constant
Mushroom tyrosinase [2] = target: T1, Mushroom tyrosinase (Agaricus bisporus, UniProt O42713+Q00024+C7FF04+C7FF05); assay: Inhibition of mushroom Tyrosinase; format: protein assay
Mushroom tyrosinase [3] = target: T1, Mushroom tyrosinase; assay: Inhibition of mushroom Tyrosinase using L-DOPA as substrate assessed as inhibition constant by Michaelis-Menten analysis; format: protein assay
Tyrosinase [4] = target: T2, Tyrosinase (Homo sapiens, UniProt P14679); assay: Binding affinity to human Tyrosinase assessed as inhibition constant
T2 sequence (P14679 whole entry): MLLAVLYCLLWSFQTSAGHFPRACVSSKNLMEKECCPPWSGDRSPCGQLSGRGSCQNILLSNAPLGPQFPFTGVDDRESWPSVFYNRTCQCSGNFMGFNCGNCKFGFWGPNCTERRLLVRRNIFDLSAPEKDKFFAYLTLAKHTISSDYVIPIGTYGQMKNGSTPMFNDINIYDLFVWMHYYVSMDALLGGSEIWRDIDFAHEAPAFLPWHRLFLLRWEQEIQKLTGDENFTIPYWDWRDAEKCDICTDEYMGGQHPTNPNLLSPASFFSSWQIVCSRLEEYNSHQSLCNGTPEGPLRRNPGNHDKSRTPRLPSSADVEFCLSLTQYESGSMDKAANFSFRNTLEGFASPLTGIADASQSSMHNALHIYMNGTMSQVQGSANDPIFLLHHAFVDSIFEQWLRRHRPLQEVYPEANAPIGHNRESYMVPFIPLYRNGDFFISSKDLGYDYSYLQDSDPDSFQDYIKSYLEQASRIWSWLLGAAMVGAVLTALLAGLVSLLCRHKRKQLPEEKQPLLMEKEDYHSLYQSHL

[5] = Inhibition of Bacterial Tyrosinase; set-up: species or system Bacteria
Mushroom tyrosinase [6] = target: T1, Mushroom tyrosinase; assay: Binding affinity to mushroom Tyrosinase using L-DOPA as substrate assessed as inhibition constant by Michaelis-Menten analysis; format: protein assay
Mushroom tyrosinase [7] = target: T1, Mushroom tyrosinase; assay: Inhibition of mushroom Tyrosinase by using L-DOPA as substrate by spectrophotometric assay; format: protein assay
[8] = Biniding affinity to bacterial Tyrosinase assessed as inhibition constant; set-up: species or system Bacteria
Tyrosinase [9] = target: T2, Tyrosinase; assay: Binding affinity to human Tyrosinase using L-DOPA as substrate assessed as inhibition constant by Michaelis-Menten analysis
Tyrosinase [10] = target: T2, Tyrosinase; assay: Inhibition of human tyrosinase using L-DOPA as substrate by spectrophotometer analysis
[11] = Inhibition of human Tyrosine kinase
[12] = Binding affinity to bacterial Tyrosinase assessed as inhibition constant; set-up: species or system Bacteria
Oc1ccc(OC2CCCCO2)cc1 [13] = assay: (§1) Binding affinity to mushroom tyrosinase assessed as catalytic constant using L-DOPA as substrate by Michaelis-Menten analysis; format: protein assay; conditions: Agaricus bisporus
[14] = tested on: OC[C@H]1O[C@@H](Oc2ccc(O)cc2)[C@H](O)[C@@H](O)[C@@H]1O; assay: as §1; format: protein assay; conditions: Agaricus bisporus
[15] = tested on: Oc1ccc(/C=C/c2cc(O)cc(O)c2)cc1; assay: as §1; format: protein assay; conditions: Agaricus bisporus
[16] = tested on: O=C1/C(=C/c2ccc(O)cc2)Oc2cc(O)ccc21; assay: as §1; format: protein assay; conditions: Agaricus bisporus
NCCc1ccc(O)cc1 [17] = assay: (§2) Binding affinity to mushroom tyrosinase assessed as catalytic constant by Michaelis-Menten analysis; format: protein assay; conditions: Agaricus bisporus
O=C(O)Cc1ccc(O)cc1 [18] = assay: as §2; format: protein assay; conditions: Agaricus bisporus
[19] = tested on: N[C@H](Cc1ccc(O)cc1)C(=O)O; assay: as §2; format: protein assay; conditions: Agaricus bisporus
COc1ccc(O)cc1 [20] = assay: as §2; format: protein assay; conditions: Agaricus bisporus
Oc1ccccc1 [21] = assay: as §2; format: protein assay; conditions: Agaricus bisporus
[22] = tested on: O=C(/C=C/c1ccc(O)c(O)c1)O[C@H](Cc1ccc(O)c(O)c1)C(=O)O; assay: (§3) Binding affinity to mushroom tyrosinase assessed as catalytic constant; format: protein assay; conditions: Agaricus bisporus
Cc1ccc(O)c(O)c1 [23] = assay: as §3; format: protein assay; conditions: Agaricus bisporus
[24] = tested on: O=C(O)/C=C/c1ccc(O)c(O)c1; assay: as §3; format: protein assay; conditions: Agaricus bisporus
[25] = tested on: N[C@H](Cc1ccc(O)c(O)c1)C(=O)O; assay: as §3; format: protein assay; conditions: Agaricus bisporus
[26] = tested on: O=c1c(O)c(-c2ccc(O)c(O)c2)oc2cc(O)cc(O)c12; assay: as §3; format: protein assay; conditions: Agaricus bisporus
[27] = tested on: N[C@@H](Cc1ccc(O)cc1)C(=O)O; assay: as §3; format: protein assay; conditions: Agaricus bisporus
CC(C)(C)c1ccc(O)c(O)c1 [28] = assay: as §3; format: protein assay; conditions: Agaricus bisporus
[29] = tested on: CC(C)NCC(O)c1ccc(O)c(O)c1; assay: as §3; format: protein assay; conditions: Agaricus bisporus
[30] = tested on: N[C@@H](Cc1ccc(O)c(O)c1)C(=O)O; assay: as §3; format: protein assay; conditions: Agaricus bisporus
O=C(O)Cc1ccc(O)c(O)c1 = assay: as §3; format: protein assay; conditions: Agaricus bisporus
Oc1ccccc1O [31] = assay: as §3; format: protein assay; conditions: Agaricus bisporus
NCCc1ccc(O)c(O)c1 [32] = assay: as §3; format: protein assay; conditions: Agaricus bisporus
Oc1ccc(OC2CCCCO2)cc1 [33] = assay: (§4) Binding affinity to mushroom tyrosinase […]; format: protein assay; conditions: Agaricus bisporus
NCCc1ccc(O)cc1 [34] = assay: as §4; format: protein assay; conditions: Agaricus bisporus
Cc1ccc(O)c(O)c1 [35] = assay: as §4; format: protein assay; conditions: Agaricus bisporus
[36] = tested on: OC[C@H]1O[C@@H](Oc2ccc(O)cc2)[C@H](O)[C@@H](O)[C@@H]1O; assay: as §4; format: protein assay; conditions: Agaricus bisporus
O=C(O)Cc1ccc(O)cc1 [37] = assay: as §4; format: protein assay; conditions: Agaricus bisporus
[38] = tested on: O=c1c(O)c(-c2ccc(O)c(O)c2)oc2cc(O)cc(O)c12; assay: as §4; format: protein assay; conditions: Agaricus bisporus
[39] = tested on: N[C@@H](Cc1ccc(O)cc1)C(=O)O; assay: as §4; format: protein assay; conditions: Agaricus bisporus
CC(C)(C)c1ccc(O)c(O)c1 [40] = assay: as §4; format: protein assay; conditions: Agaricus bisporus
[41] = tested on: CC(C)NCC(O)c1ccc(O)c(O)c1; assay: as §4; format: protein assay; conditions: Agaricus bisporus
[42] = tested on: N[C@H](Cc1ccc(O)cc1)C(=O)O; assay: as §4; format: protein assay; conditions: Agaricus bisporus
[43] = tested on: N[C@@H](Cc1ccc(O)c(O)c1)C(=O)O; assay: as §4; format: protein assay; conditions: Agaricus bisporus
COc1ccc(O)cc1 [44] = assay: as §4; format: protein assay; conditions: Agaricus bisporus
Oc1ccccc1 [45] = assay: as §4; format: protein assay; conditions: Agaricus bisporus
Oc1ccccc1O [46] = assay: as §4; format: protein assay; conditions: Agaricus bisporus
NCCc1ccc(O)c(O)c1 [47] = assay: as §4; format: protein assay; conditions: Agaricus bisporus

Sequence of Mushroom tyrosinase (Agaricus bisporus) (C7FF05 whole entry, looked up): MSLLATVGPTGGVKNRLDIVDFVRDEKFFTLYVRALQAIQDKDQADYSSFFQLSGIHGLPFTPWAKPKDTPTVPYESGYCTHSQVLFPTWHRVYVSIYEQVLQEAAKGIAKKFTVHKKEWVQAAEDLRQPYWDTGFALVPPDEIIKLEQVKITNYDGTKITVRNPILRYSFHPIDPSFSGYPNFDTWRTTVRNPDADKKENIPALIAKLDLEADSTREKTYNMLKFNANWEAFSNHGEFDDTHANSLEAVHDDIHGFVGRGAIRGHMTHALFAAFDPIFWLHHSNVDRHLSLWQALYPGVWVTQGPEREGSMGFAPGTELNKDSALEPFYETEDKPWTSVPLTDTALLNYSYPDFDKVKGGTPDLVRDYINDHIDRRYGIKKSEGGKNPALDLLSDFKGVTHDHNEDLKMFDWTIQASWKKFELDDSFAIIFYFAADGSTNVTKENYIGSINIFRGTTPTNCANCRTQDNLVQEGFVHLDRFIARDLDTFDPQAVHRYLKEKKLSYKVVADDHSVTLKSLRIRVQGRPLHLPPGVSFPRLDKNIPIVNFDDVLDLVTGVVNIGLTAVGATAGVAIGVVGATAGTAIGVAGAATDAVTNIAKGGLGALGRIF
Sequence of Mushroom tyrosinase (Agaricus bisporus) (C7FF04 whole entry, looked up): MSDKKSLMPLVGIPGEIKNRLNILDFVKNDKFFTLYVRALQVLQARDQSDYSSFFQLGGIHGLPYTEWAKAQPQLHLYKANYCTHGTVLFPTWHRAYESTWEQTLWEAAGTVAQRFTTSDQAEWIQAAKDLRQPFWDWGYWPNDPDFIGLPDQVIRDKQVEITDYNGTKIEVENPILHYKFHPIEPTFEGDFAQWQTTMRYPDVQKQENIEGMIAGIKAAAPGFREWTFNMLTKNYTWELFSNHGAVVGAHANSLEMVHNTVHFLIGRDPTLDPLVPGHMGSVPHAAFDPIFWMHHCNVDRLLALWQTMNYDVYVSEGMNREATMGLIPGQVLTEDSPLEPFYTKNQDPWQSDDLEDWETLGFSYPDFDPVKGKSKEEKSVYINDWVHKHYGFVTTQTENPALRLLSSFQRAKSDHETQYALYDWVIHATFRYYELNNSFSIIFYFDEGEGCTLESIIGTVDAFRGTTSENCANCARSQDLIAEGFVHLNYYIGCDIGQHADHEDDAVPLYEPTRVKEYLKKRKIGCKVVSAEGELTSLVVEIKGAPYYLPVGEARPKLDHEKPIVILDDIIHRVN
Sequence of Mushroom tyrosinase (Agaricus bisporus) (Q00024 whole entry, looked up): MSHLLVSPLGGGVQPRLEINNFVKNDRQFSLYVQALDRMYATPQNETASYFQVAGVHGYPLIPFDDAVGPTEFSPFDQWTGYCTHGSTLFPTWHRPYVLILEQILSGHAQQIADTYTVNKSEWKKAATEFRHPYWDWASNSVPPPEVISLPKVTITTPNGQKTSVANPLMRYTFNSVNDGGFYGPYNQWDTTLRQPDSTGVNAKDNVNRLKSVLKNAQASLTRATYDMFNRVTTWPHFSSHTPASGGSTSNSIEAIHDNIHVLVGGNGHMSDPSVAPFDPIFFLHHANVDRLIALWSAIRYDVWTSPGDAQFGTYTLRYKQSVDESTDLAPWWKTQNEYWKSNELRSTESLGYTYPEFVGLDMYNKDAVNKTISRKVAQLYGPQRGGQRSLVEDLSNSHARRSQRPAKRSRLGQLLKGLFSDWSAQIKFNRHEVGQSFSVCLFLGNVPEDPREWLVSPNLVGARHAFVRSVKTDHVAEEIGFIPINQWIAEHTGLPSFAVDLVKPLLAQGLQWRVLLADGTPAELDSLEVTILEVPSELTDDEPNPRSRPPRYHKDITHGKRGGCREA
Sequence of Mushroom tyrosinase (Agaricus bisporus) (O42713 whole entry, looked up): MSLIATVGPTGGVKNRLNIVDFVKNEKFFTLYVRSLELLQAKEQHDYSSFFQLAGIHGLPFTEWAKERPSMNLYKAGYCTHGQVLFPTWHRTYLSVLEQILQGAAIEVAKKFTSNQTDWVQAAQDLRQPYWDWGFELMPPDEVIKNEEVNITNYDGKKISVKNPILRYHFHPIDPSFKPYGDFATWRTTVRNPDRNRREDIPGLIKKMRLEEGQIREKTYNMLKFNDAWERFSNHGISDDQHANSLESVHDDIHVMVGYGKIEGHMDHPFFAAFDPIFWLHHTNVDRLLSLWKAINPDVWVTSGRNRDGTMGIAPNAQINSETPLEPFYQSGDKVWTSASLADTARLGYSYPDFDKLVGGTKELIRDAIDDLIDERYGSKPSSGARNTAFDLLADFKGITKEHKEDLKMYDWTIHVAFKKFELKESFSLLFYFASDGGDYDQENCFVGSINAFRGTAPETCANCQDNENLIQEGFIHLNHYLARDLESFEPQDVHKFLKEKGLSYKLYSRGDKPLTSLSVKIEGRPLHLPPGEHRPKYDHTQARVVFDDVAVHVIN

NCCn1ccc(=O)c(O)c1
pKi [1]: 4.85

O=c1cc(CSC2CCCCC2)occ1O
IC50 (Mushroom tyrosinase [2]): 0.087 µM

On1ccccc1=S
IC50 (Mushroom tyrosinase [3]): 6.1 µM

NC(=S)N/N=C/c1cc(=O)c(O)co1
IC50 (Mushroom tyrosinase [2]): 10 µM | pKi (Tyrosinase [4]): 3.59 | pIC50 [5]: 5.80

Cc1c(C)c2c(c(C)c1O)CCC(C)(C(=O)OCc1cc(=O)c(O)co1)O2 (centres undefined)
IC50 (Mushroom tyrosinase [2]): 5.4 µM

O=C(/C=C/c1ccc2c(c1)OCO2)OCc1cc(=O)c(O)co1
IC50 (Mushroom tyrosinase [2]): 1.4 µM

COc1ccc(C(=O)OCc2cc(=O)c(O)co2)cc1
IC50 (Mushroom tyrosinase [2]): 2 µM

Oc1cccnc1O
Ki (Mushroom tyrosinase [6]): 22 µM

O=C(N[C@@H](Cc1ccccc1)C(=O)OCc1cc(=O)c(O)c[nH]1)OCc1ccccc1
IC50 (Mushroom tyrosinase [2]): 9 µM

O=C1/C(=C/c2ccc(=O)n(O)c2)Oc2cccc(O)c21
Ki (Mushroom tyrosinase [6]): 1.02 µM

O=C1/C(=C/c2ccc(=O)n(O)c2)Oc2cc(O)cc(O)c21
Ki (Mushroom tyrosinase [6]): 1.2 µM

O=C1/C(=C/c2ccc(=O)n(O)c2)Oc2cc(O)ccc21
Ki (Mushroom tyrosinase [6]): 0.35 µM | IC50 (Mushroom tyrosinase [3]): 1.5 µM

O=c1cc(CSc2nnc(-c3ccccc3)n2NCc2ccc(O)cc2O)occ1O
IC50 (Mushroom tyrosinase [7]): 1.4 µM

CCCCCCCCn1cc(O)c(=O)cc1COC(=O)[C@@H](N)Cc1ccccc1
IC50 (Mushroom tyrosinase [2]): 4 µM

CCOC(=O)/C=C/c1cc(=O)c(O)co1
IC50 (Mushroom tyrosinase [2]): 36 µM

CCCCCCCCn1cc(O)c(=O)cc1/C=N/OCC
IC50 (Mushroom tyrosinase [2]): 8 µM

O=c1ccc(CO)cn1O
pKi [8]: 5.39

N[C@@H](Cc1ccc(=O)n(O)c1)C(=O)O
pKi [8]: 4.41

O=Cc1ccc(OCc2cc(=O)c(O)co2)cc1F
IC50 (Mushroom tyrosinase [2]): 5.3 µM

CCCCCCCCn1cc(O)c(=O)cc1C=O
IC50 (Mushroom tyrosinase [2]): 7.8 µM

O=c1cc(CSCCCCSCc2cc(=O)c(O)co2)occ1O
IC50 (Mushroom tyrosinase [2]): 3 µM

O=c1oc2ccc(O)cc2cc1O
IC50 (Mushroom tyrosinase [3]): 10 µM

CCCCCCn1cc(O)c(=O)cc1/C=C/c1cc(O)cc(O)c1
IC50 (Mushroom tyrosinase [2]): 16 µM

O=c1cc(CSc2nc3ccccc3c(=O)n2CCc2ccccn2)occ1O
IC50 (Mushroom tyrosinase [7]): 0.46 µM

O=C(CCNC(=O)OCc1cc(=O)c(O)co1)OCc1cc(=O)c(O)co1
IC50 (Mushroom tyrosinase [2]): 7 µM

Nc1cc2ccc(O)cc2oc1=O
IC50 (Mushroom tyrosinase [3]): 53 µM

CCn1ccc(=O)c(O)c1
pKi [1]: 5.40

COc1ccccc1/C=C/C=N/Nc1nnc(SCc2cc(=O)c(O)co2)n1N
IC50 (Mushroom tyrosinase [7]): 7.5 µM

O=c1cc(CSc2nc3ccccc3s2)occ1O
IC50 (Mushroom tyrosinase [7]): > 3 µM

CC(C)[C@@H](NC(=O)[C@@H](N)Cn1ccc(=O)c(O)c1)C(=O)O
IC50 (Mushroom tyrosinase [2]): 10.3 µM

NC(=S)N/N=C\c1ccc(=O)n(O)c1
Ki (Mushroom tyrosinase [6]): 0.56 µM | IC50 (Mushroom tyrosinase [3]): 0.56 µM | pKi (Tyrosinase [9]): 4.33 | pKi [8]: 5.70

CN(C)c1ccc(-c2nnc(SCc3cc(=O)c(O)co3)nc2-c2ccc(N(C)C)cc2)cc1
IC50 (Mushroom tyrosinase [7]): 0.34 µM

O=c1cc(CSc2nnc(-c3ccc(F)cc3)o2)occ1O
IC50 (Mushroom tyrosinase [7]): 5.3 µM

CC(C)c1ccccc(=O)c1O [ALPHA-THUJAPLICIN]
Ki (Mushroom tyrosinase [6]): 9.5 µM | pIC50 (Tyrosinase [10]): < 3.00

Cc1c(O)c(=O)ccn1C [DEFERIPRONE]
IC50 (Mushroom tyrosinase [2]): 30 µM

CC(C)c1ccc(O)c(=O)cc1 [GAMMA-THUJAPLICIN]
Ki (Mushroom tyrosinase [6]): 0.07 µM

CC(C)c1cccc(=O)c(O)c1 [HINOKITIOL]
Ki (Mushroom tyrosinase [6]): 0.09 µM

O=c1cc(CO)occ1O [KOJIC ACID]
pIC50 [11]: 4.51

N[C@@H](Cn1ccc(=O)c(O)c1)C(=O)O [L-MIMOSINE]
pKi [1]: 5.10 | pKi [12]: 4.27

O=c1cccccc1O [TROPOLONE]
Ki (Mushroom tyrosinase [6]): 8 µM

Mushroom tyrosinase (Agaricus bisporus) (from UniProt O42713+Q00024+C7FF04+C7FF05)
kcat (Oc1ccc(OC2CCCCO2)cc1 [13]): 1.95 s⁻¹ | kcat [14]: 3.8 s⁻¹ | kcat [15]: 69 s⁻¹ | kcat [16]: 2.3 s⁻¹ | kcat (NCCc1ccc(O)cc1 [17]): 26 s⁻¹ | kcat (O=C(O)Cc1ccc(O)cc1 [18]): 44 s⁻¹ | kcat [19]: 8.7 s⁻¹ | kcat (COc1ccc(O)cc1 [20]): 184 s⁻¹ | kcat (Oc1ccccc1 [21]): 13 s⁻¹ | kcat [22]: 68 s⁻¹ | kcat (Cc1ccc(O)c(O)c1 [23]): 842 s⁻¹ | kcat [24]: 403 s⁻¹ | kcat [25]: 108 s⁻¹ | kcat [26]: 6.2 s⁻¹ | kcat [27]: 7.9 s⁻¹ | kcat (CC(C)(C)c1ccc(O)c(O)c1 [28]): 642 s⁻¹ | kcat [29]: 29 s⁻¹ | kcat [30]: 107 s⁻¹ | kcat (O=C(O)Cc1ccc(O)c(O)c1): 632 s⁻¹ | kcat (Oc1ccccc1O [31]): 874 s⁻¹ | kcat (NCCc1ccc(O)c(O)c1 [32]): 475 s⁻¹ | Km (Oc1ccc(OC2CCCCO2)cc1 [33]): 0.033 µM | Km (NCCc1ccc(O)cc1 [34]): 0.51 µM | Km (Cc1ccc(O)c(O)c1 [35]): 100 µM | Km [36]: 3000 µM | Km (O=C(O)Cc1ccc(O)cc1 [37]): 1910 µM | Km [38]: 0.12 µM | Km [39]: 0.21 µM | Km (CC(C)(C)c1ccc(O)c(O)c1 [40]): 2.8 µM | Km [41]: 7100 µM | Km [42]: 2.5 µM | Km [43]: 800 µM | Km (COc1ccc(O)cc1 [44]): 80 µM | Km (Oc1ccccc1 [45]): 0.7 µM | Km (Oc1ccccc1O [46]): 0.16 µM | Km (NCCc1ccc(O)c(O)c1 [47]): 720 µM
